Assay results from patent US10273222B2 (CELGENE QUANTICEL RESEARCH, INC., priority 2013, dated 2019).

How the values were obtained:
Format in all cases: biochemical
JMJD2C = JMJD2C (Homo sapiens (Human), UniProt Q9H3R0); assay: JMJD2C in vitro enzyme inhibition assay (TR-FRET)
Jarid1B = Jarid1B (Homo sapiens (Human), UniProt Q9UGL1); assay: Jarid1B in vitro enzyme inhibition assay (TR-FRET)
Procedure: This assay determines the ability of a test compound to inhibit Jarid1A, Jarid1B, JMJD2C, and JMJD2A demethylase activity.
The ability of test compounds to inhibit the activity of Jarid1B was determined in 384-well plate format under the following reaction conditions: 0.8 nM Jarid1B, 300 nM H3K4me3-biotin labeled peptide (Anaspec cat #64357), 2 μM alpha-ketoglutaric acid in assay buffer of 50 mM HEPES, pH7.3, 0.005% Brij35, 0.5 mM TCEP, 0.2 mg/ml BSA, 50 μM sodium L-ascorbate, and 2 μM ammonium iron(II) sulfate. Reaction product was determined quantitatively by TR-FRET after the addition of detection reagent Phycolink Streptavidin-allophycocyanin (Prozyme) and Europium-anti-mono- or di-methylated histone H3 lysine 4 (H3K4me1-2) antibody (PerkinElmer) in the presence of 5 mM EDTA in LANCE detection buffer (PerkinElmer) at a final concentration of 25 nM and 1 nM, respectively.
The assay reaction was initiated by the following: 2 μl of the mixture of 900 nM H3K4me3-biotin labeled peptide and 6 μM alpha-ketoglutaric acid with 2 μl of 11-point serial diluted inhibitor in 3% DMSO was added to each well of the plate, followed by the addition of 2 μl of 2.4 nM Jarid1B to initiate the reaction. The reaction mixture was incubated at room temperature for 30 minutes, and terminated by the addition of 6 μl of 5 mM EDTA in LANCE detection buffer containing 50 nM Phycolink Streptavidin-allophycocyanin and 2 nM Europium-anti-H3K4me1-2 antibody. Plates were read by EnVisionMultilabel Reader in TR-FRET mode (excitation at 320 nm, emission at 615 nm and 665 nm) after 1 hour incubation at room temperature. A ratio was calculated (665/615) for each well and fitted to determine inhibition constant (IC50).

FBXL10 = FBXL10 (Homo sapiens (Human), UniProt Q8NHM5); assay: FBXL10 in vitro enzyme inhibition assay (AlphaScreen)
Procedure: Reaction product was determined quantitatively by AlphaScreen detection after the addition of detection reagents anti-H3K36me1 antibody, AlphaScreen® Streptavidin-coated Donor beads, and AlphaScreen® Protein A Acceptor beads in 50 mM HEPES, pH7.3, 10 mM NaCl, 0.005% Brij35, 5 mM EDTA, 2 mg/ml BSA to final 10 μg/ml beads.
Plates were incubated at room temperature for 40 minutes, followed by addition of 3 μl of 50 μg/ml AlphaScreen® Streptavidin-coated Donor beads and AlphaScreen® Protein A Acceptor beads in 50 mM HEPES, pH7.3, 10 mM NaCl, 0.005% Brij35, 5 mM EDTA, 2 mg/ml BSA. Plates were read by EnVisionMultilabel Reader in AlphaScreen mode after a minimum of 2 hour or up to overnight incubation at room temperature. The AlphaScreen signal for each well was used to determine inhibition constant (IC50).

Jarid1A = Jarid1A (Homo sapiens (Human), UniProt P29375); assay: Jarid1A in vitro enzyme inhibition assay (TR-FRET)
Source text: The enzymatic assay of Jarid1A activity is based upon Time Resolved-Fluorescence Resonance Energy Transfer (TR-FRET) detection.

Sequence of Jarid1B (Q9UGL1 2-751): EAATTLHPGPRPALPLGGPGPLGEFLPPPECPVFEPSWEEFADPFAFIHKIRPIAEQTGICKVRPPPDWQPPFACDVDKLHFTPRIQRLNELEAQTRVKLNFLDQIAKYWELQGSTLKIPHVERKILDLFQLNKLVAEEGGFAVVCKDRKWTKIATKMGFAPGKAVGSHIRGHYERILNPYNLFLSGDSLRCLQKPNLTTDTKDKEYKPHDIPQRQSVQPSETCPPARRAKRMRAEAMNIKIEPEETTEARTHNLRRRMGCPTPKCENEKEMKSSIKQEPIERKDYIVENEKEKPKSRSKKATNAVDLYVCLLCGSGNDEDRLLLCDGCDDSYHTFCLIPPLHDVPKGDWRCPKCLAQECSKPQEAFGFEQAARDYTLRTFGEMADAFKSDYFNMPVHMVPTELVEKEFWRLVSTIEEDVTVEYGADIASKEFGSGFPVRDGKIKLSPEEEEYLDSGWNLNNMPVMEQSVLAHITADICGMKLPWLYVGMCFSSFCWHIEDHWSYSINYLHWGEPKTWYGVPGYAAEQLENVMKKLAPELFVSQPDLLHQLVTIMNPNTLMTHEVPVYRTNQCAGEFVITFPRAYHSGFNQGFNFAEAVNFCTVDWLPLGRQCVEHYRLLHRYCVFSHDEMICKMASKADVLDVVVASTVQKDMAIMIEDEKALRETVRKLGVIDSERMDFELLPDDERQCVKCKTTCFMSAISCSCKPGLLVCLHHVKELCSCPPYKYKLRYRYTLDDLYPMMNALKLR
Sequence of FBXL10 (Q8NHM5 1-650): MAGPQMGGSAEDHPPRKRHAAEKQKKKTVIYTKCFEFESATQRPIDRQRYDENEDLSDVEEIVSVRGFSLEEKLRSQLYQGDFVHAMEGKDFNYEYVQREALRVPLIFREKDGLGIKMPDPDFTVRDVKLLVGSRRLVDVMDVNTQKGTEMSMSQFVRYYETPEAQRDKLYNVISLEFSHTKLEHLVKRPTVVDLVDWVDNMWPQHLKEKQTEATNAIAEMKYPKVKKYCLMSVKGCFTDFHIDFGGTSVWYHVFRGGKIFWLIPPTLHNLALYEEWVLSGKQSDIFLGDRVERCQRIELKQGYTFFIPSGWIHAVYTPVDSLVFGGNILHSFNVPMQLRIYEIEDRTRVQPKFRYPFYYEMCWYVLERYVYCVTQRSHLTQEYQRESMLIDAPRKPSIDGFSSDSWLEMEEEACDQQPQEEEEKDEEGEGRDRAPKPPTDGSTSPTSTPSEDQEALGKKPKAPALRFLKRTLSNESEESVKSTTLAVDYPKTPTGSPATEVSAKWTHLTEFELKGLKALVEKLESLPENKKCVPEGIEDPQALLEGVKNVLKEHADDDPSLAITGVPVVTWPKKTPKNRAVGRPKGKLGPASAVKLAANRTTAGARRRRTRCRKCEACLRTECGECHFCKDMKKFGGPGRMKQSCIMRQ
Sequence of Jarid1A (P29375 1-1090): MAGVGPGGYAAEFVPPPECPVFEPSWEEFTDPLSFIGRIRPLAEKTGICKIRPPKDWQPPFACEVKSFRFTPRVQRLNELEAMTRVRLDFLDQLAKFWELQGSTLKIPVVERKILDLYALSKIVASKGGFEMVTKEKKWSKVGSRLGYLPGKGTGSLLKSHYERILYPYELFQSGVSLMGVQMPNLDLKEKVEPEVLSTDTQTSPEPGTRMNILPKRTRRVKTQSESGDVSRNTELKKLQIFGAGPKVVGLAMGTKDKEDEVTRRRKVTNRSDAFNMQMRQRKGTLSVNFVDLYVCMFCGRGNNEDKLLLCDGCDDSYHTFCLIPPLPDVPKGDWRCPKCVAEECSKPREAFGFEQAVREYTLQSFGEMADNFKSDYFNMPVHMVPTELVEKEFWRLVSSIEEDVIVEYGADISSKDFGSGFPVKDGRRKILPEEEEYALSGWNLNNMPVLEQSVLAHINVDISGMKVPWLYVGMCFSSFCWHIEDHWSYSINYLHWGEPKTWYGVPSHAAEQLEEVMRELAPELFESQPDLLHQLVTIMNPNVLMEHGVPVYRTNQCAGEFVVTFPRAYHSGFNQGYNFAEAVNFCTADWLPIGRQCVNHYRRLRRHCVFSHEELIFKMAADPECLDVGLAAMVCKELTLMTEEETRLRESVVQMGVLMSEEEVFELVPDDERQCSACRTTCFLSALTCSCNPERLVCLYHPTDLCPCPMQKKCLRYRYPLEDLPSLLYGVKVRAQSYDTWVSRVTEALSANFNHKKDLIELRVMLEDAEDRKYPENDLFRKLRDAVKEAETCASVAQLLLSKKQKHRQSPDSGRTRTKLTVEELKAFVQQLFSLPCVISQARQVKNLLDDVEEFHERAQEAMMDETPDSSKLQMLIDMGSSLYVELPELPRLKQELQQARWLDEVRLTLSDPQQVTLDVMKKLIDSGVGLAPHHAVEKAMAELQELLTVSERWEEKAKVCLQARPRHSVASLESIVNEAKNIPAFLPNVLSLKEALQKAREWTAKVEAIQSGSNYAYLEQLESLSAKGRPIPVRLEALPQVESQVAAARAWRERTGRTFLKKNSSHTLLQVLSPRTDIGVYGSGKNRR
Sequence of JMJD2C (Q9H3R0 2-372): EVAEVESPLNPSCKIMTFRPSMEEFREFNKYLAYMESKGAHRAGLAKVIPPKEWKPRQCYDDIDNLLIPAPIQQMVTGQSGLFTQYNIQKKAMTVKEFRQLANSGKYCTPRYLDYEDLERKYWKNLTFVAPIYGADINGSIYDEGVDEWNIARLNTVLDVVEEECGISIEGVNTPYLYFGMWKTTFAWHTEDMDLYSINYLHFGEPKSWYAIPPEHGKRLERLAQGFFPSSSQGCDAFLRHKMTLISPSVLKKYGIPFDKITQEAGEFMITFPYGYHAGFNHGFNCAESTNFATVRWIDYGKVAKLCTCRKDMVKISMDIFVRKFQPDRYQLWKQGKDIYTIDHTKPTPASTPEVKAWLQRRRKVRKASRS

Compound | IC50 (JMJD2C) [nM] | IC50 (Jarid1B) [nM] | IC50 (FBXL10) [nM] | IC50 (Jarid1A) [nM]
COCCn1cnc(-c2cc(C(=O)O)ccn2)c1-c1ccc(Cl)c(F)c1 [Example 37, 2-[5-(4-chloro-3-fluorophenyl)-1-(2-methoxyethyl)-1H-imidazol-4-yl]pyridine-4-carboxylic acid] | 1000 to 10000 | ≤ 100 | ≤ 100 | ≤ 100
O=C(O)c1ccnc(-c2cn(C3CCNC3)cn2)c1 (centres unmarked) [Example 52, 2-[1-(pyrrolidin-3-yl)-1H-imidazol-4-yl]pyridine-4-carboxylic acid] | ≤ 100 | ≤ 100 | 100 to 1000 | ≤ 100
CN1CCOC(Cn2cnc(-c3cc(C(=O)O)ccn3)c2)C1 (centres unmarked) [Example 54, 2-{1-[(4-methylmorpholin-2-yl)methyl]-1H-imidazol-4-yl}pyridine-4-carboxylic acid] | ≤ 100 | ≤ 100 | ≤ 100 | ≤ 100
Cn1cnc(-c2cc(C(=O)O)ccn2)c1-c1cccc(F)c1 [Example 24, 2-[5-(3-fluorophenyl)-1-methyl-1H-imidazol-4-yl]pyridine-4-carboxylic acid] | 100 to 1000 | ≤ 100 | ≤ 100 | ≤ 100
Cc1ccc(-c2c(-c3cc(C(=O)O)ccn3)ncn2C)cc1 [Example 4, 2-[1-methyl-5-(4-methylphenyl)-1H-imidazol-4-yl]pyridine-4-carboxylic acid] | 1000 to 10000 | ≤ 100 | 100 to 1000 | ≤ 100
O=C(O)c1ccnc(-c2cn(CCNCC3CC(F)(F)C3)cn2)c1 [Example 73, 2-[1-[2-[(3,3-difluorocyclobutyl)methylamino]ethyl]imidazol-4-yl]pyridine-4-carboxylic acid] | ≤ 100 | ≤ 100 | ≤ 100 | ≤ 100
O=C(O)c1ccnc(-c2cn(CCn3cccn3)cn2)c1 [Example 46, 2-{1-[2-(1H-pyrazol-1-yl)ethyl]-1H-imidazol-4-yl}pyridine-4-carboxylic acid] | 1000 to 10000 | 100 to 1000 | 100 to 1000 | 100 to 1000
CN1CCCC(Cn2cnc(-c3cc(C(=O)O)ccn3)c2)C1 (centres unmarked) [Example 55, 2-{1-[(1-methylpiperidin-3-yl)methyl]-1H-imidazol-4-yl}pyridine-4-carboxylic acid] | ≤ 100 | ≤ 100 | ≤ 100 | ≤ 100
CCOc1cc(Cl)ccc1-c1c(-c2cc(C(=O)O)ccn2)ncn1C [Example 32, 2-[5-(4-chloro-2-ethoxyphenyl)-1-methyl-1H-imidazol-4-yl]pyridine-4-carboxylic acid] | 1000 to 10000 | ≤ 100 | 100 to 1000 | ≤ 100
CN(CCn1cnc(-c2cc(C(=O)O)ccn2)c1)Cc1ccccc1 [Example 57, 2-(1-{2-[benzyl(methyl)amino]ethyl}-1H-imidazol-4-yl)pyridine-4-carboxylic acid] | ≤ 100 | ≤ 100 | ≤ 100 | ≤ 100
CN(C)CCn1cnc(-c2cc(C(=O)O)ccn2)c1-c1ccc(Cl)c(F)c1 [Example 39, 2-{5-(4-chloro-3-fluorophenyl)-1-[2-(dimethylamino)ethyl]-1H-imidazol-4-yl}pyridine-4-carboxylic acid] | ≤ 100 | ≤ 100 | ≤ 100 | ≤ 100
Cn1cnc(-c2cc(C(=O)O)ccn2)c1-c1cccc(CO)c1 [Example 11, 2-{5-[3-(hydroxymethyl)phenyl]-1-methyl-1H-imidazol-4-yl}pyridine-4-carboxylic acid] | 1000 to 10000 | 100 to 1000 | 100 to 1000 | 100 to 1000
Cn1cnc(-c2cc(C(=O)O)ccn2)c1-c1ccc(Cl)c(Cl)c1 [Example 28, 2-[5-(3,4-dichlorophenyl)-1-methyl-1H-imidazol-4-yl]pyridine-4-carboxylic acid] | 100 to 1000 | ≤ 100 | 100 to 1000 | ≤ 100

Other lines, results leading:

IC50 (JMJD2C) [nM] | IC50 (Jarid1B) [nM] | IC50 (FBXL10) [nM] | IC50 (Jarid1A) [nM] | Compound
≤ 100 | ≤ 100 | ≤ 100 | ≤ 100 | O=C(O)c1ccnc(-c2cn(CCNCc3ccc(F)cc3)cn2)c1 [Example 74, 2-[1-[2-[(4-fluorophenyl)methylamino]ethyl]imidazol-4-yl]pyridine-4-carboxylic acid]
≤ 100 | ≤ 100 | ≤ 100 | ≤ 100 | O=C(O)c1ccnc(-c2cn(CCN3Cc4cccc(Cl)c4C3)cn2)c1 [Example 81, 2-[1-[2-(4-chloro-1,3-dihydroisoindol-2-yl)ethyl]imidazol-4-yl]pyridine-4-carboxylic acid]
≤ 100 | ≤ 100 | ≤ 100 | ≤ 100 | N#Cc1cccc2c1CN(CCn1cnc(-c3cc(C(=O)O)ccn3)c1)C2 [Example 83, 2-[1-[2-(4-cyano-1,3-dihydroisoindol-2-yl)ethyl]imidazol-4-yl]pyridine-4-carboxylic acid]
100 to 1000 | ≤ 100 | ≤ 100 | ≤ 100 | O=C(O)c1ccnc(-c2cn(CCN(Cc3ccc(Cl)c(Cl)c3)C3CC3)cn2)c1 [Example 86, 2-[1-[2-[cyclopropyl-[(3,4-dichlorophenyl)methyl]amino]ethyl]imidazol-4-yl]pyridine-4-carboxylic acid]
≤ 100 | ≤ 100 | ≤ 100 | ≤ 100 | O=C(O)c1ccnc(-c2cn(CCN3Cc4ccccc4C3)cn2)c1 [Example 76, 2-[1-[2-(1,3-dihydroisoindol-2-yl)ethyl]imidazol-4-yl]pyridine-4-carboxylic acid]
≤ 100 | ≤ 100 | ≤ 100 | ≤ 100 | CCc1ccccc1CNCCn1cnc(-c2cc(C(=O)O)ccn2)c1 [Example 80, 2-[1-[2-[(2-ethylphenyl)methylamino]ethyl]imidazol-4-yl]pyridine-4-carboxylic acid]
≤ 100 | ≤ 100 | ≤ 100 | ≤ 100 | O=C(O)c1ccnc(-c2cn(CCN3Cc4ccc(F)cc4C3)cn2)c1 [Example 79, 2-[1-[2-(5-fluoro-1,3-dihydroisoindol-2-yl)ethyl]imidazol-4-yl]pyridine-4-carboxylic acid]
≤ 100 | ≤ 100 | ≤ 100 | ≤ 100 | O=C(O)c1ccnc(-c2cn(CCNCc3ccccc3Cl)cn2)c1 [Example 78, 2-[1-[2-[(2-chlorophenyl)methylamino]ethyl]imidazol-4-yl]pyridine-4-carboxylic acid]
100 to 1000 | ≤ 100 | ≤ 100 | ≤ 100 | O=C(O)c1ccnc(-c2cn(CC3CCCCC3)cn2)c1 [Example 115, 2-[1-(cyclohexylmethyl)imidazol-4-yl]pyridine-4-carboxylic acid]
≤ 100 | ≤ 100 | ≤ 100 | ≤ 100 | O=C(O)c1ccnc(-c2cn(CCN3Cc4ccc(C(F)(F)F)cc4C3)cn2)c1 [Example 84, 2-[1-[2-[5-(trifluoromethyl)-1,3-dihydroisoindol-2-yl]ethyl]imidazol-4-yl]pyridine-4-carboxylic acid]
